What all share (assay type): in vivo
The subject of experiment [1] is adrenocorticotropic hormone (ACTH). Description: Neurotransmitter measurement by ELISA: ACTH. Particulars: trunk blood. On the procedure: (§1) The rats were housed in individual cages with light and temperature control (temperature: 21±2° C.; lights on at 8:00 AM and off at 8:00 PM). Food and water were available ad libitum. All experimental procedures were carried out in strict accordance with the National Institutes of Health guidelines for care and use of experimental animals. After an initial habituation period of 1 week, all animals were given access to bottle containing a sucrose solution in tap water for 1 hour and were tested for the baseline data of the sucrose preference test. According to the baseline data, the animals were divided into 9 groups (n=10-12 animals/each group), that is the control group, the stressed group, the stressed+fluoxetine group, the stressed+Example 1 group, the stressed+ginseng extract group, the stressed+Radix paeoniae Alba extract group, the stressed+Tree Peony Bark extract group, the stressed+Sharpleaf Galangal Fruit extract group, and the stressed+Radix Polygonum multiflorum Preparata extract group. The animals were subjected to 2 to 5 different mild stressors per day for 5 weeks. The mild stressors included water and food deprivation, cage tilt, continuously lighting, cage soiling, stroboscopic lighting, restricted access to food, and tail pinching. Control animals were not subjected to the stress protocol, and the stressed animals were subjected to the mild stressors and given the same amount of water as control group. The animals of the stressed+fluoxetine group were subjected to the mild stressors and treated with fluoxetine capsules. The animals of the stressed+Example 1 group were subjected to the mild stressors and treated with the composition of Example 1. The animals of the stressed+single extract group were subjected to the mild stressors and treated with the single extract.
(§2) The rats were sacrificed and the trunk blood was collected into the collection tubes coated with standard heparin. […] The levels of corticotropin-releasing hormone (CRH), adrenocorticotropic hormone (ACTH) and cortisol (CORT) were detected by ELISA. […]

The next experiment deals with cortisol (CORT). As to the kind of experiment: Neurotransmitter measurement by ELISA: CORT. The following applies: trunk blood. As to the method: as §1, §2
In general terms: ELISA stands for enzyme-linked immunosorbent assay.

In experiment [2] the test system is corticotropin-releasing hormone (CRH). Description: Neurotransmitter measurement by ELISA: CRH. The following applies: trunk blood. As to the method:
as §1, §2

Experiment [3] deals with chronically stressed rats. As to the kind of experiment: Sucrose preference test in chronically stressed rats. On the procedure: as §1
The rats could select between two bottles of liquid freely, one with 0.8% sucrose solution and one with tap water, after 23 h food and water deprivation. To avoid the rats prefer to drink one side of the water, the position of the two bottles were exchanged every half an hour. Tap water consumption and sucrose consumption were measured by weighting the bottles, and the sucrose preference were calculated based on the following formula: […]
The rats were housed in individual cages with light and temperature control (temperature: 21±2° C.; lights on at 8:00 AM and off at 8:00 PM). Food and water were available ad libitum. All experimental procedures were carried out in strict accordance with the National Institutes of Health guidelines for care and use of experimental animals. After an initial habituation period of 1 week, all animals were given access to bottle containing a sucrose solution in tap water for 1 hour and were tested for the baseline data of the sucrose preference test. […]

The test system of a further experiment is CRH, ACTH and CORT. Description: Neurotransmitter measurement, overall statement on CRH, ACTH and CORT. The following applies: chronically stressed rats. On the procedure: The rats were housed in individual cages with light and temperature control (temperature: 21±2° C.; lights on at 8:00 AM and off at 8:00 PM). Food and water were available ad libitum. All experimental procedures were carried out in strict accordance with the National Institutes of Health guidelines for care and use of experimental animals. After an initial habituation period of 1 week, all animals were given access to bottle containing a sucrose solution in tap water for 1 hour and were tested for the baseline data of the sucrose preference test. According to the baseline data, the animals were divided into 9 groups (n=10-12 animals/each group), that is the control group, the stressed group, the stressed+fluoxetine group, the stressed+Example 1 group, the stressed+ginseng extract group, the stressed+Radix paeoniae Alba extract group, the stressed+Tree Peony Bark extract group, the stressed+Sharpleaf Galangal Fruit extract group, and the stressed+Radix Polygonum multiflorum Preparata extract group. The animals were subjected to 2 to 5 different mild stressors per day for 5 weeks. […]
as §2

Setting [4] is: Comparative study (Comparative Examples 1-7), chronically stressed rats.
Setting [5] is: Experimental Example 1, chronically stressed rats.
[6] abbreviates: Experimental Example 2, chronically stressed rats.

`CNCCC(Oc1ccc(C(F)(F)F)cc1)c1ccccc1` (centres unmarked) [fluoxetine]: the ACTH in experiment [1] (setting [4]) turned out to be 32.73 ± 2.66 pg/mL; in experiment [1] (setting [5]), 33.83 ± 2.26 pg/mL; in experiment [1] (setting [6]) it was 33.83 ± 2.26 pg/mL. For the same compound, the CORT with cortisol (CORT) (setting [4]) is 52.46 ± 6.05 ng/mL; with cortisol (CORT) (setting [5]), 52.09 ± 5.95 ng/mL; with cortisol (CORT) (setting [6]), 52.09 ± 5.95 ng/mL. Also, the CRH turned out to be 5.11 ± 0.29 ng/mL in experiment [2] (setting [4]), 5.13 ± 0.25 ng/mL in experiment [2] (setting [5]) and 5.13 ± 0.25 ng/mL in experiment [2] (setting [6]). Besides, the “Sucrose Preference” value turned out to be 0.7502 ± 0.0471 in experiment [3] (Comparative study (Comparative Example 1-7), mild stressors for 5 weeks, 0.8% sucrose vs tap water) and 0.7431 ± 0.0565 in experiment [3] (Experimental Example 2, mild stressors for 5 weeks, 0.8% sucrose vs tap water). Also, in experiment [3] (Experimental Example 1, mild stressors for 5 weeks, 0.8% sucrose vs tap water), the “Sucrose Preferenc” value is on record as 0.7431 ± 0.0565. Also, the “Change of sucrose preference compared with the stressed group (in words)” value in experiment [3] (compared with the stressed group) was “significantly increase the sucrose preference”. In the experiment with CRH, ACTH and CORT, the “Effect on the abnormal levels of CRH, ACTH and CORT caused by chronic stress (in words)” value is “improve the abnormal levels of CRH, ACTH and CORT”.

For the origin of these results see patent US10744173B2, “Traditional Chinese medicine compositions for alleviating stress” (Infinitus (China) Company Ltd., priority 2017, dated 2020).
